SMILES strings stand for the structures.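 Cultured in 96-well plates, cells were exposed to test compound for 48 hours across five concentrations. The concentration for 50% growth inhibition is given as GI50. TGI is the concentration that stops growth completely.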 Some results are limits rather than exact numbers.

What all share (assay): NCI tumour cell line growth inhibition, 48 h
The subject of assay [1] is SF-268 CNS.
The test system of assay [2] is HS 578T breast.
Assay [3] concerns M14 melanoma.
Assay [4] relates to SF-295 CNS.
The test system of assay [5] is SK-MEL-28 melanoma.
Assay [6] concerns SNB-75 CNS.
Assay [7] relates to HT29 colon.
Assay [8] deals with HCC-2998 colon.
Assay [9] has as its system ACHN renal.
In assay [10] the test system is OVCAR-3 ovarian.
Assay [11] concerns P388 leukemia.
Assay [12] concerns HOP-18 NSCLC.
For assay [13], the system named is DLD-1 colon.
Assay [14] has as its system DMS 114 small cell lung.
Assay [15] deals with SNB-78 CNS.

Consider `CN(C)S(=O)(=O)c1cccc(-c2nc3sc4c(c3c(=O)[nH]2)CCCC4)c1`, for which the GI50 in assay [1] is 3.24 µM; in assay [2], 2.98 µM; in [3], above 100 µM; in assay [4], 1.35 µM; in assay [5], above 100 µM. The TGI was above 100 µM in [1]; above 100 µM in assay [2]; above 100 µM in assay [3]; 4.01 µM in assay [4]; above 100 µM in assay [5].
`O=C(/C=C/c1ccsc1)c1ccc(Cl)s1`: the TGI in [1], in [2], in assay [3], in assay [4], in assay [6] and in [5] was above 100 µM throughout. Also, the TGI in assay [7], in assay [8] and in assay [9] was above 100 µM each time.
In the case of `CC(=O)O[C@H]1CC[C@H]2[C@@H]3CC[C@H]4Nc5c(cnn5S(C)(=O)=O)C[C@]4(C)[C@H]3CC[C@]12C`, the TGI in [10] was 78.1 µM; in assay [2], above 100 µM; in assay [3], above 100 µM; in [4] it was above 100 µM; in assay [6], above 100 µM; in [5] it was above 100 µM. For the same compound, the TGI in assay [7] and in assay [8] was above 100 µM in each case.
Regarding `COc1cc(C2c3cc4c(cc3[C@@H](Nc3ccc(N5CCOCC5)cc3)C3COC(=O)[C@H]23)OCO4)cc(OC)c1O` (stereo partly specified), the TGI in assay [11] stood at 1.01 µM; in assay [10], 13.2 µM; in [1] it was 14.2 µM; in assay [4], 2.42 µM; in [6], 78.2 µM; in [12] it was 6.67 µM. Besides, the TGI in [5] was 26.8 µM; in assay [7], 4.58 µM; in assay [13] it was 4.12 µM; in [8], 4.1 µM.
Regarding `CC1=NN(C(=O)c2ccccc2)C(=O)C1N=Nc1ccccc1C(=O)O` (stereo unspecified), the TGI was above 46.3 µM in assay [11]; above 27.5 µM in assay [10]; above 100 µM in assay [1]; above 100 µM in assay [14]; above 100 µM in assay [4]; above 20.7 µM in assay [6]. For the same compound, the TGI was above 100 µM in [12]; above 100 µM in [5]; above 100 µM in assay [7]; above 100 µM in assay [13]; above 70.6 µM in [8].
As to `Cn1nc2ccc3nccc(NCCNCCCl)c3c2n1`, the TGI in [10], in [1], in assay [14], in assay [3], in [4] and in assay [6] was above 100 µM throughout. In addition, the TGI in assay [5], in assay [7], in [13], in assay [8] and in assay [9] was above 100 µM throughout.
Consider `CCOC(=O)CCc1c(C)c2c(O)cc(O)cc2oc1=O`, for which the TGI in [11], in assay [10], in [1], in [15], in assay [4] and in assay [6] was above 100 µM throughout. Also, the TGI in assay [12], in assay [5], in assay [7], in [13] and in assay [8] was above 100 µM in each case.
`COC(=O)C[C@](O)(CCC(C)(C)O)C(=O)O[C@@H]1C(OC)=C[C@]23CCCN2CCc2cc4c(cc2[C@H]13)OCO4`: the TGI in assay [11] came to 0.133 µM; in [10], 0.459 µM; in assay [1] it was 0.496 µM; in assay [15], 1.04 µM; in [14], 0.0597 µM; in assay [4], 0.61 µM. For the same compound, the TGI was 0.95 µM in assay [6]; 0.756 µM in assay [12]; 0.294 µM in assay [5]; 1.06 µM in [7]; 0.0855 µM in [8].
For `CCOC(=O)C1CCn2c(nc3c(=O)n(C)c(=O)n(C)c32)S1` (stereo unspecified), the TGI in assay [10], in assay [1], in assay [15], in assay [3], in assay [4] and in [6] was above 100 µM in each case. Moreover, the TGI in assay [12], in assay [7], in assay [13] and in assay [9] was above 100 µM throughout.
